Laboratory results as given in patent publication US6448392B1, “Lipid derivatives of antiviral nucleosides: liposomal incorporation and method of use” (Chimerix, Inc., priority 1985, dated 2002).
pEC50, pIC50: −log10 of the molar value. Values joined by “and” are separate entries in the source; they are usually repeats but may differ in a detail not shown here. Equal values may be shown once. Where a name gives a salt, the structure may show the parent alone. Read-outs that look alike come from different tables or passages of the source. Values belong to the molecule of their own block, whether it stands above or below them.

Experiments:
[1] = system: HIV (LAV-1); assay: HIV plaque formation in HT4-6C cells (CD4+ HeLa cells) infected with LAV-1; assay type: cell-based
Description: In this experiment the compound of Example 7 (1-O- stearoylglycero-rac-3-phospho-5′-(3′-deoxy, 3′-azido)thymidine) was incorporated into liposomes containing 10 mole percent of the liponucleotide as indicated in Example 8. This material was diluted with RPMI medium to the desired concentration and added to HT4-6C cells (CD4+ HeLa cells) obtained from Dr. Bruce Chesbro of the Rocky Mountain National Laboratories (Hamilton, Mont.) which had been infected with LAV-1 as noted earlier in this example. After a 3 day incubation at 37° C., the cells were washed with PBS, fixed and stained with crystal violet and the plaques were counted.
PalmitoylAZT was incorporated into liposomes as noted in Example 8 and incubated with LAV-1 infected HT4-6C cells as noted in Examples 10 and 11. 0.8 uM palmitoylAZT inhibited plaque formation by 25% (134 plaques versus 176 in the untreated control).

[2] = system: HSV-1; assay: Herpes simplex virus plaque reduction assay, HSV-1 in Wi-38 cells; assay type: cell-based, Herpes simplex virus type 1; details: for pIC50: HSV-1 infected Wi-38 cells, plaque reduction, read-out: concentration which produces 50% inhibition
Description: Wi-38 cells were obtained from American Type Culture Collection (Rockville, Md. 20852) and grown in Dulbecco's minimum essential medium (DMEM) with 10% fetal calf serum (FCS). The cells were grown in 250 cm square bottles until reaching confluence.
Herpes simplex virus (HSV) type 1 (HSV-1) and type 2 (HSV-2) were obtained from the American Type Culture Collection. Both virus stocks were prepared in Wi-38 cells; extensive cytopathic effects (CPD) were observed when the stock virus was harvested by a single freezing and thawing and the cell debris was clarified by low speed centrifugation (2000 rpm). Supernatant fluids containing the virus were aliquoted into small vials and stored at −80° C. Both HSV-1 and HSV-2 stocks were titered in Wi-38 cells before use in the experiments.
The plaque reduction assay was used to measure the antiviral effect of phosphatidylacyclovir or free ACV. Wi-38 cells were trypsinized with 0.25% trypsin for 5 min. The cells were harvested and centrifuged to remove residual trypsin and the cell pellet was resuspended in DMEM with 10% FCS. The Wi-38 cells were plated in a 96 well plate ([…] cells/well) for one hour. The infected cells were then treated with phosphatidylacyclovir or ACV. The antiviral agents were prepared in stock solutions which were then diluted two-fold with 2% FBS in DMEM containing 0.5% methylcellulose. 100 μl of each diluted antiviral agent was added into each well of HSV infected cells.
The control and drug-treated cell cultures were incubated in a 37° C. incubator with 5% carbon dioxide for 24 hours. […] The dye was rinsed off with tap water and the plate was dried and plaques were counted. The antiviral effect of ACV or phosphatidylacyclovir was determined by measurement of plaque reduction as shown in the example below.

[3] = system: HIV (LAV-1 strain); assay type: cell-based; details: for inhibition of HIV p24 production: Experiment H747-1b, CEM cells; for pEC50: CEM wild type
Description: 6.42 micromoles of dioleoylphosphatidylcholine, 3.85 micromoles of cholesterol, 1.28 micromoles of dioleoylphosphatidylglycerol and 1.28 micromoles of dimyristoylphosphatidyl-azidothymidine were mixed in a sterile 2.0 ml glass vial and the solvent was removed in vacuo in a rotary evaporator. In some experiments, dimyristoylphosphatidylazidothymidine was replaced with either dimyristoylphosphatidyldideoxythymidine, dimyristoylphosphatidyldideoxycytidine or azidothymidine diphosphate dimyristoylglycerol; control liposomes were prepared by omitting the antiviral liponucleotide. The dried film was placed under high vacuum overnight at room temperature to remove traces of solvent. The lipid film was hydrated at 30° C. with 0.3 ml of sterile 10 mM sodium acetate buffer (pH 5.0) containing isotonic dextrose and the ampule was sealed. The mixture was vortexed intermittently for 10 minutes followed by sonication using a Heat Systems Ultrasonics sonicator with a cup horn generator (431B) at output control setting #9 for 90 to 120 minutes at which time the sample is clarified. This sonicated preparation was diluted with sterile RPMI buffer and added to the tissue culture wells at the concentration indicated.
(§1) The human T lymphoblastoid cell line, CCRG-CEM (hereafter referred to as CEM), was grown in RPMI 1640 medium containing 100 U/ml penicillin G, 100 ug/ml streptomycin, 2 mM glutamine and 10% fetal bovine serum (Hyclone Laboratories, Logan, Utah). Cells were infected with the LAV-1 strain (L. Montagnier, Paris, France) at a multiplicity of infection of one tissue culture 50% infectious dose (TCID50)/cell for 60 minutes at 37° C. in medium containing […]. CEM cells were infected in suspension at 6×10^4 cells/ml, washed three times by centrifugation and resuspension and then distributed in 96-well plates at 6×10^4 cells/well before addition of medium containing the liposomal antiretroviral liponucleotide drugs.
(§2) Antiviral activity was assayed after 3 days by the inhibition of the production of HIV p24 (gag) antigen in the cell free culture medium of the infected cells exposed to different concentrations of drug; p24 antigen was measured by ELISA (Abbott Laboratories, Chicago, Ill.) according to the manufacturer's instructions. The data are the average of two determinations and are expressed as percentage of a control incubated in the absence of drugs.

[4] = system: HIV in CEM tk- cells; assay: Inhibition of HIV p24 production in thymidine kinase deficient CEM tk- cells; assay type: cell-based; details: Experiment H637-1b, AZT 0.2 to 100 uM
Description: as §1, §2
In this experiment, CEM cells were replaced with mutant cells (provided by Dr. Dennis Carson, Scripps Clinic, San Diego, Calif.) which lack the thymidine kinase enzyme (CEM tk−).

[5] = system: HIV in CEM (wild type) cells; assay: Experiment I276: antiviral protection of CEM cells by preincubation, p24 in supernates; assay type: cell-based; details: 3 day preincubation; 24 and 48 hours in normal media after removal of drug
Description: The cells were then washed twice with PBS, and fresh RPMI media added. Each group of cells was then divided into three batches. One batch was immediately infected with HIV, as noted above; after washing away unattached HIV, the sample was allowed to incubate in media alone for 3 days. Two other batches were allowed to incubate in media alone for either 24 or 48 hours to allow any intracellular antiviral agent present to become depleted. Then they were infected with HIV, the cells washed free of virus, and fresh RPMI media added. After 3 days of further incubation, the supernates of all batches were tested for the presence of p24 protein.
CEM cells were subjected to HIV infection without preincubation; drug was added following HIV infection as indicated, and the cells were incubated for 3 days.
After a further incubation for 3 days, p24 was measured.

[6] = 10 uM liponucleotide in liposomes, 3 day incubation
[7] = Experiment H533-1, liposomes containing 10 mole percent liponucleotide, p24 after 3 days, read-out: amount of drug required to reduce virus production by 50% (E.D. 50)
[8] = Experiment H805-1, liposomes, p24, read-out: ED50 (the source's name)

pIC50 ([1]; HT4-6C cells infected with LAV-1, liposomes, read-out: concentration required to produce 50% inhibition of HIV plaque formation): ~6.46
Compound: CCCCCCCCCCCCCCCCCC(=O)OCC(O)COP(=O)(O)OC[C@H]1O[C@@H](n2cc(C)c(=O)[nH]c2=O)C[C@@H]1N=[N+]=[N-] (mixture of isomers) [Example 7, 1-O-stearoylglycero-rac-3-phospho-5′-(3′-azido-3′-deoxy)thymidine]
% of Untreated Control ([1]; 0.0316 uM): 78%
Plaques, Average ([1]; 0.0316 uM): 43
% of Untreated Control ([1]; 0.100 uM): 71%
Plaques, Average ([1]; 0.100 uM): 39
% of Untreated Control ([1]; 0.316 uM): 58%
Plaques, Average ([1]; 0.316 uM): 32
% of Untreated Control ([1]; 1.0 uM): 29%
Plaques, Average ([1]; 1.0 uM): 16
% of Untreated Control ([1]; 3.16 uM): 13%
Plaques, Average ([1]; 3.16 uM): 7
% of Untreated Control [1, 6]: 2%
Plaques, Average [1, 6]: 1

Compound: CCCCCCCCCCCCCC(=O)OCC(COP(=O)(O)OCCOCn1cnc2c(=O)[nH]c(N)nc21)OC(=O)CCCCCCCCCCCCC (stereo in doubt) [PhosphatidylACV, dimyristoylphosphatidylacycloguanosine]
pIC50 [2]: 5.70
% no Drug ([2]; PhosphatidylACV 0.84 uM): 91%
plaques (determinations 1 and 2) ([2]; PhosphatidylACV 0.84 uM): 24 and 26
plaques, mean ([2]; PhosphatidylACV 0.84 uM): 25
% no Drug ([2]; PhosphatidylACV 1.67 uM): 67%
plaques (determinations 1 and 2) ([2]; PhosphatidylACV 1.67 uM): 17 and 20
plaques, mean ([2]; PhosphatidylACV 1.67 uM): 18.5
% no Drug ([2]; PhosphatidylACV 3.3 uM): 40%
plaques (determinations 1 and 2) ([2]; PhosphatidylACV 3.3 uM): 10 and 12
plaques, mean ([2]; PhosphatidylACV 3.3 uM): 11
% no Drug ([2]; PhosphatidylACV 6.7 uM): 27%
plaques (determinations 1 and 2) ([2]; PhosphatidylACV 6.7 uM): 6 and 9
plaques, mean ([2]; PhosphatidylACV 6.7 uM): 7.5
% no Drug ([2]; PhosphatidylACV 13.4 uM): 18%
plaques (determinations 1 and 2) ([2]; PhosphatidylACV 13.4 uM): 4 and 6
plaques, mean ([2]; PhosphatidylACV 13.4 uM): 5
% no Drug ([2]; PhosphatidylACV 27 uM): 9%
plaques (determinations 1 and 2) ([2]; PhosphatidylACV 27 uM): 2 and 3
plaques, mean ([2]; PhosphatidylACV 27 uM): 2.5
% no Drug ([2]; PhosphatidylACV 54 uM): 0%
plaques (determinations 1 and 2) ([2]; PhosphatidylACV 54 uM): 0
plaques, mean ([2]; PhosphatidylACV 54 uM): 0
% no Drug ([2]; PhosphatidylACV 107 uM): 0%
plaques (determinations 1 and 2) ([2]; PhosphatidylACV 107 uM): 0
plaques, mean ([2]; PhosphatidylACV 107 uM): 0

Compound: Nc1nc2c(ncn2COCCO)c(=O)[nH]1 [Acyclovir, Acycloguanosine, reference compound]
% no Drug ([2]; Acyclovir 0.155 uM): 73%
plaques (determinations 1 and 2) ([2]; Acyclovir 0.155 uM): 18 and 22
plaques, mean ([2]; Acyclovir 0.155 uM): 20
% no Drug ([2]; Acyclovir 0.31 uM): 65%
plaques (determinations 1 and 2) ([2]; Acyclovir 0.31 uM): 17 and 19
plaques, mean ([2]; Acyclovir 0.31 uM): 20
% no Drug ([2]; Acyclovir 0.625 uM): 26%
plaques (determinations 1 and 2) ([2]; Acyclovir 0.625 uM): 8 and 6
plaques, mean ([2]; Acyclovir 0.625 uM): 7
% no Drug ([2]; Acyclovir 1.25 uM): 13%
plaques (determinations 1 and 2) ([2]; Acyclovir 1.25 uM): 4 and 3
plaques, mean ([2]; Acyclovir 1.25 uM): 3.5
% no Drug ([2]; Acyclovir 2.5 uM): 0%
plaques (determinations 1 and 2) ([2]; Acyclovir 2.5 uM): 0
plaques, mean ([2]; Acyclovir 2.5 uM): 0
% no Drug ([2]; Acyclovir 5 uM): 0%
plaques (determinations 1 and 2) ([2]; Acyclovir 5 uM): 0
plaques, mean ([2]; Acyclovir 5 uM): 0
% no Drug ([2]; Acyclovir 10 uM): 0%
plaques (determinations 1 and 2) ([2]; Acyclovir 10 uM): 0
plaques, mean ([2]; Acyclovir 10 uM): 0
pIC50 ([2]; Human alphaherpesvirus 1): 6.40

Compound: Cc1cn([C@H]2C[C@H](N=[N+]=[N-])[C@@H](CO)O2)c(=O)[nH]c1=O [Example N1, 3′-azido-3′-deoxythymidine, reference compound]
effectiveness in reducing p24, free AZT versus liponucleotide ([3]; Experiment H747-1a, low concentrations below 0.1 uM): more effective than the liponucleotide
effect on p24 production [4]: completely without effect
protection from HIV after removal of the drug [5]: failed to protect the cells from HIV infection

Compound: Cc1cn([C@H]2CC[C@@H](CO)O2)c(=O)[nH]c1=O [Example N2, 2′,3′-dideoxythymidine, reference compound]
inhibition of HIV p24 production [3]: weak inhibitor of HIV p24 production

pEC50 [3, 7]: 5.70
Compound: CCCCCCCCCCCCCC(=O)OC[C@H](COP(=O)(O)OC[C@H]1O[C@@H](n2cc(C)c(=O)[nH]c2=O)C[C@@H]1N=[N+]=[N-])OC(=O)CCCCCCCCCCCCC [LN1, 1,2-Dimyristoylglycerophospho-5′-(3′-azido-3′-deoxy)thymidine, Monosodium Salt]
effectiveness in reducing p24, phosphatidylAZT liposomes versus free AZT ([3]; Experiment H747-1a, concentrations ranging from 2 to 170 uM): more effective than the free AZT
effect on p24 production [4]: capable of reducing p24 production
protection from HIV after removal of the drug [5]: complete protection from HIV replication

Compound: CCCCCCCCCCCCCC(=O)OC[C@@H](COP(=O)(O)OC[C@@H]1CC[C@H](n2cc(C)c(=O)[nH]c2=O)O1)OC(=O)CCCCCCCCCCCCC [LN2, 1,2-Dimyristoylglycerophospho-5′-(3′-deoxy)thymidine, Monosodium Salt]
pEC50 [3, 7]: 4.52
inhibition of HIV p24 production [3]: somewhat more effective than the free nucleoside
pEC50 [3, 8]: 4.70
effect on p24 production [4]: capable of reducing p24 production

Compound: CCCCCCCCCCCCCC(=O)OCC(COP(=O)(O)OCC1CCC(n2ccc(N)nc2=O)O1)OC(=O)CCCCCCCCCCCCC (stereo not shown) [LN3, 1,2-dimyristoylglycerophospho-5′-(3′-dideoxy)cytidine]
pEC50 [3, 8]: 5.96

pEC50 [3, 7]: 5.10
Compound: CCCCCCCCCCCCCC(=O)OCC(COP(=O)(O)OP(=O)(O)OCC1OC(n2cc(C)c(=O)[nH]c2=O)CC1N=[N+]=[N-])OC(=O)CCCCCCCCCCCCC (stereo not shown) [LN4, azidothymidine diphosphate dimylristoylglycerol]

Compound: CCCCCCCCCCCCCCCC(=O)OC[C@H]1O[C@@H](n2cc(C)c(=O)[nH]c2=O)C[C@@H]1N=[N+]=[N-] [PalmitoylAZT, 5′-palmitoyl(3′-deoxy-3′-azido)thymidine]
plaques ([1]; 0.8 uM in liposomes, 176 in the untreated control): 134
inhibition of plaque formation ([1]; 0.8 uM in liposomes, LAV-1 infected HT4-6C cells): 25%
